Data as given in PMC7262913, “Substrate recognition by a bifunctional GH30‐7 xylanase B from Talaromyces cellulolyticus” (FEBS Open Bio, 2020).

Molecular target: T1, TcXyn30B (Talaromyces pinophilus, UniProt A0A510NXC4)
T1 construct: gene TCE0_018f06110; no His tag; vector residues AYVEF at N-terminus (numbered 18-22); secreted from Pichia pastoris GS115, N-glycosylated, 62182 Da; one molecule per asymmetric unit
T1 sequence (A0A510NXC4 23-474): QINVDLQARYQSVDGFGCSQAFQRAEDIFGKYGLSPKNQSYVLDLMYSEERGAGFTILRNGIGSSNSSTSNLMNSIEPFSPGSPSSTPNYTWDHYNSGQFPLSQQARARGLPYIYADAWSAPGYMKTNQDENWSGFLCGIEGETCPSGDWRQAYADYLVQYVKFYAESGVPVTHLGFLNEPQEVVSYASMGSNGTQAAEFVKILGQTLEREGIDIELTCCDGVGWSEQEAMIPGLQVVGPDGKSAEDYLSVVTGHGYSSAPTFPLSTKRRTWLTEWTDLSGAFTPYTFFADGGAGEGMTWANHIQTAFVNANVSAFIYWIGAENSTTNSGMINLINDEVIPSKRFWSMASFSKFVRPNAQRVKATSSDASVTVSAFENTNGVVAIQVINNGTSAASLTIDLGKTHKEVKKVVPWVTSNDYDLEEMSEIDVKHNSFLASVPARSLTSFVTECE
Test: X-ray crystallography (co-crystal, […] Å)
Format: binding
Conditions: co-crystallised with aldouronic acid mixture (Megazyme); pH 7.3, MgCl2; subsites -1, -2a and -2b of active site

CO[C@H]1[C@H](O)[C@@H](O)[C@@H](O[C@H]2[C@H](O[C@@H]3COC(O)[C@H](O)[C@H]3O)OC[C@@H](O)[C@@H]2O)O[C@@H]1C(=O)O (stereo partly drawn) [U^4m2X, 2^2‐(4‐O‐methyl‐α‐D‐glucuronyl)‐xylobiose]
X-ray crystallography (co-crystal, 1.65 Å): A clear density map for U^4m2X is observed in the active cleft
